Read-outs that look alike come from different tables or passages of the source.
Columns and labels:
[1] = molecular target: D2R; settings: cited from earlier work
[2] = molecular target: T1, human D2 (Homo sapiens, UniProt P14416); assay: D2R radioligand binding assay ([125I]IABN, HEK cells); settings: human D2 expressed in HEK cells, [125I]IABN radioligand, at least three experiments, HCl salts; read-out: Ki ± SEM D2R
T1 construct: expressed in transfected cells
Experimental: (§1) The receptor binding assay for the D2R and the D3R and the β-arrestin recruitment assay for the D3R were performed by following the previously reported methods.

[3] = molecular target: T2, D3R (Homo sapiens, UniProt P35462); assay: D3R radioligand binding assay ([125I]IABN, HEK cells); parameters: expressed in transfected cells; settings: for D2R/D3R Ratio: (Ki for D2R)/(Ki for D3R), D3R versus D2R selectivity (fold); for Ki: human D3 expressed in HEK cells, [125I]IABN radioligand, at least three experiments, HCl salts, read-out: Ki ± SEM D3R
T2 sequence (P35462 whole entry): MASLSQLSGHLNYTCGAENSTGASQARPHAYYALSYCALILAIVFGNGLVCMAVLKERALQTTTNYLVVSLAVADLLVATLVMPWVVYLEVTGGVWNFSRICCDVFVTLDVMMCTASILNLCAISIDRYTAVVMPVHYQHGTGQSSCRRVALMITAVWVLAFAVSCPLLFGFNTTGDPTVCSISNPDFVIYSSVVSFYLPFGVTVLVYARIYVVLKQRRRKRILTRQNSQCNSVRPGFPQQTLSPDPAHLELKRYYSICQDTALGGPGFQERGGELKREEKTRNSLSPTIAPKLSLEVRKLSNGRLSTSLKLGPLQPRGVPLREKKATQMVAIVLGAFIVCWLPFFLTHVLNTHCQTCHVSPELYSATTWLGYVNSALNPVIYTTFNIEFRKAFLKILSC
Experimental: as §1

[4] = molecular target: T2, D3R; assay: β-arrestin competition (recruitment) assay against dopamine; type: cell-based; settings: competition with dopamine (30 nM) for the D3R, at least three experiments; read-out: β-Arrestin Assay IC50 ± SEM
Experimental: Compounds having a longer aliphatic linker ((R,S)-trans-2b–d) have a similar IC50 value in this assay. As expected, the IC50 value of β-arrestin assay parallels the Ki value in the D3R binding assay. It is of interest to note that the potency of (R,S)-trans-2a in the β-arrestin assay is higher than its potency in the in vitro binding assay for the D3R.
as §1

[5] = molecular target: T2, D3R; settings: cited from earlier work; for Ki: read-out: D3R affinity
[6] = molecular target: T2, D3R; parameters: method as in PMID 33918451; settings: MDS, Fallypride; cited from earlier work
[7] = Figure 1, PET radiotracers, read-out: D2R affinity

T1 sequence (P14416 whole entry): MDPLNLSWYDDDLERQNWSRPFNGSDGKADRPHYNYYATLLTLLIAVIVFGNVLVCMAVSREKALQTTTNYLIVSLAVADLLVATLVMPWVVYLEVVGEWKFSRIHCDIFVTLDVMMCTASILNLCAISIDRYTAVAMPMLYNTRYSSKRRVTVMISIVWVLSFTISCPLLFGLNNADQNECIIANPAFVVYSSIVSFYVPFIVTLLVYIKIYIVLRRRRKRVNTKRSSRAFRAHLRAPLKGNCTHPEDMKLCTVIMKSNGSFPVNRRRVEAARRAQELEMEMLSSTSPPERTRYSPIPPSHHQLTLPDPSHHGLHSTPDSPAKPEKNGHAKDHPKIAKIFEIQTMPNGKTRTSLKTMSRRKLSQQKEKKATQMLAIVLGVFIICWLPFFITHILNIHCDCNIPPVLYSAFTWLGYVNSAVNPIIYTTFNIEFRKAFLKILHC

Row | Compound | Ki [2] | D2R/D3R Ratio [3] | Ki [3] | IC50 [4] | other results
1 | CC[11CH2]N1CCO[C@@H]2c3cc(O)ccc3CC[C@H]21 [[^11C]-(+)-PHNO] |  |  |  |  | Ki ([1]; Figure 1, printed with superscript H, read-out: ^HD2R affinity): 0.45 nM
2 | CCN1CCC[C@H]1CNC(=O)c1c(O)c(Cl)cc(Cl)c1OC [[^11C]Raclopride, Raclopride] |  |  |  |  | D2R/D3R ([5]; Figure 1, PET radiotracers): 0.514; Ki ([5]; Figure 1, PET radiotracers): 3.5 nM; Ki [1, 7]: 1.8 nM
3 | CCN1CCC[C@H]1CNC(=O)c1cc(Br)cc(OC)c1O[11CH3] [[^11C]FLB 457] |  |  |  |  | D2R/D3R ([5]; Figure 1, PET radiotracers): 1.294; Ki ([5]; Figure 1, PET radiotracers): 0.017 nM; Ki [1, 7]: 0.022 nM
4 | CCCN(CCC1(O)CC(NC(=O)c2ccc3ccccc3c2)C1)C1CC1c1ccc(Cl)cc1 (stereo not drawn) [CJ-1882] |  |  |  |  | Ki ([5]; CJ-1882): 2.8 nM
5 | C=CCN1CCC[C@H]1CNC(=O)c1cc(CCCF)cc(OC)c1OC [Fallypride] |  |  |  |  | Ki [1, 7]: 0.02 nM; Distance to D3R ASP110^3.32 [6]: 3.17 ± 0.21 Å
6 | C=CCN1C[C@H](OC(=O)NCCCCCCCCc2cccs2)C[C@@H]1CNC(=O)c1cc(CCCF)cc(OC)c1OC [(R,R)-cis-2i, (3R,5R)-1-allyl-5-((5-(3-fluoropropyl)-2,3-dimethoxybenzamido)methyl)pyrrolidin-3-yl (8-(thiophen-2-yl)octyl)carbamate] | 2190 ± 235 nM | 3.0 | 722 ± 234 nM |  | 
7 | C=CCN1C[C@@H](OC(=O)NCCCCCCCCc2cccs2)C[C@H]1CNC(=O)c1cc(CCCF)cc(OC)c1OC [(S,S)-cis-2i, (3S,5S)-1-allyl-5-((5-(3-fluoropropyl)-2,3-dimethoxybenzamido)methyl)pyrrolidin-3-yl (8-(thiophen-2-yl)octyl)carbamate] | 68 ± 12 nM |  | 148 ± 37 nM |  | 
8 | C=CCN1C[C@H](OC(=O)NCCCCCCCCc2cccs2)C[C@H]1CNC(=O)c1cc(CCCF)cc(OC)c1OC [(R,S)-trans-2i, (3R,5S)-1-allyl-5-((5-(3-fluoropropyl)-2,3-dimethoxybenzamido)methyl)pyrrolidin-3-yl (8-(thiophen-2-yl)octyl)carbamate] | 3.7 ± 0.2 nM | 5.6 | 0.7 ± 0.1 nM |  | 
9 | CCN(CCCCNC(=O)c1cc2ccccc2[nH]1)CCNC(=O)c1cc(Br)cc(OC)c1OC [HY-2-93] |  |  |  |  | D3R/D2R, D3R versus D2R selectivity (fold) ([5]; HY-2-93): 180; Ki ([5]; HY-2-93): 0.8 nM
10 | C=CCN1C[C@@H](OC(=O)NCCCCCCCCc2cccs2)C[C@@H]1CNC(=O)c1cc(CCCF)cc(OC)c1OC [(S,R)-trans-2i, (3S,5R)-1-allyl-5-((5-(3-fluoropropyl)-2,3-dimethoxybenzamido)methyl)pyrrolidin-3-yl (8-(thiophen-2-yl)octyl)carbamate] | 1470 ± 166 nM | 0.6 | 2420 ± 975 nM |  | 

Now from value to molecule, other results behind:

Row | Ki [2] | D2R/D3R Ratio [3] | Ki [3] | IC50 [4] | Compound | other results
11 | 9 ± 0.3 nM | 2.4 | 3.7 ± 0.8 nM |  | C#CCOCCOCCNC(=O)O[C@@H]1C[C@@H](CNC(=O)c2cc(CCCF)cc(OC)c2OC)N(CC=C)C1 [(R,S)-trans-2g, (3R,5S)-1-allyl-5-((5-(3-fluoropropyl)-2,3-dimethoxybenzamido)methyl)pyrrolidin-3-yl (2-(2-(prop-2-yn-1-yloxy)ethoxy)ethyl)carbamate] | 
12 | 164 ± 29 nM |  | 282 ± 69 nM | 608 ± 231 nM | C=CCN1C[C@@H](OC(=O)NCCCCCCCCCC)C[C@H]1CNC(=O)c1cc(CCCF)cc(OC)c1OC [(S,S)-cis-2d, (3S,5S)-1-allyl-5-((5-(3-fluoropropyl)-2,3-dimethoxybenzamido)methyl)pyrrolidin-3-yl decylcarbamate] | 
13 | 11.5 ± 2.6 nM | 2.2 | 5.3 ± 0.8 nM |  | C=CCN1C[C@H](OC(=O)NCCOCCOCCOCCOC)C[C@H]1CNC(=O)c1cc(CCCF)cc(OC)c1OC [(R,S)-trans-2f, (3R,5S)-1-allyl-5-((5-(3-fluoropropyl)-2,3-dimethoxybenzamido)methyl)pyrrolidin-3-yl (2,5,8,11-tetraoxatridecan-13-yl)carbamate] | 
14 | 5.5 ± 1 nM | 3.4 | 1.6 ± 0.4 nM | 7.8 ± 5.9 nM | C=CCN1C[C@H](OC(=O)NCCCCCC)C[C@H]1CNC(=O)c1cc(CCCF)cc(OC)c1OC [(R,S)-trans-2b, (3R,5S)-1-allyl-5-((5-(3-fluoropropyl)-2,3-dimethoxybenzamido)methyl)pyrrolidin-3-yl hexylcarbamate] | 
15 | 15.9 ± 3.3 nM | 4.7 | 3.4 ± 0.8 nM | 27.8 ± 21.1 nM | C=CCN1C[C@H](OC(=O)NCCCCCCCC)C[C@H]1CNC(=O)c1cc(CCCF)cc(OC)c1OC [(R,S)-trans-2c, (3R,5S)-1-allyl-5-((5-(3-fluoropropyl)-2,3-dimethoxybenzamido)methyl)pyrrolidin-3-yl octylcarbamate] | 
16 | 1940 ± 380 nM | 0.7 | 2630 ± 815 nM | > 1000 nM | C=CCN1C[C@@H](OC(=O)NCCCCCCCCCC)C[C@@H]1CNC(=O)c1cc(CCCF)cc(OC)c1OC [(S,R)-trans-2d, (3S,5R)-1-allyl-5-((5-(3-fluoropropyl)-2,3-dimethoxybenzamido)methyl)pyrrolidin-3-yl decylcarbamate] | 
17 | 4.8 ± 0.5 nM | 1.8 | 2.6 ± 0.3 nM | 0.8 ± 0.5 nM | C=CCN1C[C@H](OC(=O)NCCCC)C[C@H]1CNC(=O)c1cc(CCCF)cc(OC)c1OC [(R,S)-trans-2a, (3R,5S)-1-allyl-5-((5-(3-fluoropropyl)-2,3-dimethoxybenzamido)methyl)pyrrolidin-3-yl butylcarbamate] | 
18 | 9.2 ± 0.8 nM | 2.2 | 4.1 ± 0.6 nM |  | C=CCN1C[C@H](OC(=O)NCCOCCOCCOC)C[C@H]1CNC(=O)c1cc(CCCF)cc(OC)c1OC [(R,S)-trans-2e, (3R,5S)-1-allyl-5-((5-(3-fluoropropyl)-2,3-dimethoxybenzamido)methyl)pyrrolidin-3-yl (2-(2-(2-methoxyethoxy)ethoxy)ethyl)carbamate] | 
19 | 35.6 ± 8.1 nM |  | 2.8 ± 0.5 nM | 21.2 ± 9.8 nM | C=CCN1C[C@H](OC(=O)NCCCCCCCCCC)C[C@H]1CNC(=O)c1cc(CCCF)cc(OC)c1OC [(R,S)-trans-2d, (3R,5S)-1-allyl-5-((5-(3-fluoropropyl)-2,3-dimethoxybenzamido)methyl)pyrrolidin-3-yl decylcarbamate] | 
20 | 3.9 ± 0.4 nM | 6.2 | 0.6 ± 0.1 nM |  | C=CCN1C[C@H](OC(=O)NCCCCCCc2cccs2)C[C@H]1CNC(=O)c1cc(CCCF)cc(OC)c1OC [(R,S)-trans-2h, (3R,5S)-1-allyl-5-((5-(3-fluoropropyl)-2,3-dimethoxybenzamido)methyl)pyrrolidin-3-yl (6-(thiophen-2-yl)hexyl)carbamate] | 
21 | 9600 ± 2360 nM |  | 1660 ± 433 nM | > 1000 nM | C=CCN1C[C@H](OC(=O)NCCCCCCCCCC)C[C@@H]1CNC(=O)c1cc(CCCF)cc(OC)c1OC [(R,R)-cis-2d, (3R,5R)-1-allyl-5-((5-(3-fluoropropyl)-2,3-dimethoxybenzamido)methyl)pyrrolidin-3-yl decylcarbamate] | 
22 | 10.5 ± 2 nM | 5.0 | 2.1 ± 0.1 nM |  | C=CCN1C[C@H](OC(=O)NCCCCCCCCc2ccsc2)C[C@H]1CNC(=O)c1cc(CCCF)cc(OC)c1OC [(R,S)-trans-2j, (3R,5S)-1-allyl-5-((5-(3-fluoropropyl)-2,3-dimethoxybenzamido)methyl)pyrrolidin-3-yl (8-(thiophen-3-yl)octyl)carbamate] | 

From article PMC10779535, “Design and Synthesis of D3R Bitopic Ligands with Flexible Secondary Binding Fragments: Radioligand Binding and Computational Chemistry Studies” (Molecules, 2023)
